Legend:
[1] = Thermogravimetry (TGA) mass loss; type: physicochemical; conditions: heating rate 10 Kmin^−1, open platinum crucibles, nitrogen purge
Experimental: The TGA measurements were carried out using TGA7 and Pyris-1-TGA thermobalances from Perkin-Elmer using a heating rate of 10 Kmin^−1. The measurements were carried out in open platinum crucibles, the purge gas used was nitrogen. There was no sample preparation.

[2] = Thermodynamic and storage stability of the solid form; type: physicochemical; conditions: also after processing to suspensions

Row | SMILES | Mass loss [1] | Stability of the solid form (thermodynamic / storage) ([2]; listed as mesomorphous form) | Stability of the solid form (thermodynamic / storage) [2]
1 | COC(=O)Nc1c(N)nc(-c2nn(Cc3ccccc3F)c3ncccc23)nc1N [modification II, methyl {4,6-diamino-2-[1-(2-fluorobenzyl)-1H-pyrazolo[3,4-b]pyridin-3-yl]pyrimidin-5-yl}carbamate] | <0.5 % by weight |  | 
2 | COC(=O)Nc1c(N)nc(-c2nn(Cc3ccccc3F)c3ncccc23)nc1N [mesomorphous, Methyl {4,6-diamino-2-[1-(2-fluorobenzyl)-1H-pyrazolo[3,4-b]pyridin-3-yl]pyrimidin-5-yl}-carbamate, reference compound] | about 8 % by weight | metastable | 
3 | COC(=O)Nc1c(N)nc(-c2nn(Cc3ccccc3F)c3ncccc23)nc1N [amorphous, methyl {4,6-diamino-2-[1-(2-fluorobenzyl)-1H-pyrazolo[3,4-b]pyridin-3-yl]pyrimidin-5-yl}carbamate] | about 10 % by weight |  | 
4 | COC(=O)Nc1c(N)nc(-c2nn(Cc3ccccc3F)c3ncccc23)nc1N [modification IV, methyl {4,6-diamino-2-[1-(2-fluorobenzyl)-1H-pyrazolo[3,4-b]pyridin-3-yl]pyrimidin-5-yl}carbamate] | <1 % by weight |  | 
5 | COC(=O)Nc1c(N)nc(-c2nn(Cc3ccccc3F)c3ncccc23)nc1N [modification I, methyl {4,6-diamino-2-[1-(2-fluorobenzyl)-1H-pyrazolo[3,4-b]pyridin-3-yl]pyrimidin-5-yl}-carbamate] | <0.5 % by weight |  | thermodynamically stable and storage-stable even after processing to suspensions
6 | COC(=O)Nc1c(N)nc(-c2nn(Cc3ccccc3F)c3ncccc23)nc1N [modification III, methyl {4,6-diamino-2-[1-(2-fluorobenzyl)-1H-pyrazolo[3,4-b]pyridin-3-yl]pyrimidin-5-yl}carbamate] | <0.5 % by weight |  | 
